The target in this assay is His-tagged recombinant human TrkA (Homo sapiens (Human), UniProt P04629). Briefly: TrkA LanthaScreen Eu Kinase Binding Assay. The settings on record: averaged IC50; TR-FRET binding, 60 min, 22° C.; read-out: TrkA Enzyme IC50. The method in brief: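 TR-FRET binding: 5 nM His-tagged human TrkA cytoplasmic domain with 4 nM Alexa-Fluor Tracer 236, 2 nM biotin anti-His and 2 nM Eu-streptavidin. Buffer was 25 mM MOPS pH 7.5, 5 mM MgCl2, 0.005% Triton X-100, 2% DMSO, 60 min at 22° C. IC50 from a four-parameter fit of ratiometric percent of control.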
Sequence of His-tagged recombinant human TrkA (P04629 440-796): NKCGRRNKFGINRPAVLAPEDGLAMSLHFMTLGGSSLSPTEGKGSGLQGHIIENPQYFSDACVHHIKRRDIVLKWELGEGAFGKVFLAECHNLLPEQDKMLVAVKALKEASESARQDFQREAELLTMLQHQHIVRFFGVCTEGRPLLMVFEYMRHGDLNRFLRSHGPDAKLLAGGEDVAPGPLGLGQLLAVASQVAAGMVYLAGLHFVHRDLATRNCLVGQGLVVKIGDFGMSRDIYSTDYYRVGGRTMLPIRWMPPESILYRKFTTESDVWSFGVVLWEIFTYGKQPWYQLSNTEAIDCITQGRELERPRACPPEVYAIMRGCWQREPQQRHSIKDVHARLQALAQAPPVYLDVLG
A general note: In TR-FRET formats the signal depends on donor and acceptor labels being close together.
As for `Cc1c(OC[C@H]2CNCCO2)nn(-c2ccccc2)c1NC(=O)N[C@@H]1c2ccccc2C(C)(C)C[C@H]1O` [Example 150, 1-((1R,2R)-2-hydroxy-4,4-dimethyl-1,2,3,4-tetrahydronaphthalen-1-yl)-3-(4-methyl-3-((R)-morpholin-2-ylmethoxy)-1-phenyl-1H-pyrazol-5-yl)urea], the half-maximal inhibitory concentration (IC50) is less than 100 nM.

With `Cc1c(OC[C@H]2CN(C(C)C)CCO2)nn(-c2ccccc2)c1NC(=O)N[C@@H]1c2ccccc2C(C)(C)C[C@H]1O` [Example 151, 1-((1R,2R)-2-hydroxy-4,4-dimethyl-1,2,3,4-tetrahydronaphthalen-1-yl)-3-(3-(((R)-4-isopropylmorpholin-2-yl)methoxy)-4-methyl-1-phenyl-1H-pyrazol-5-yl)urea], the IC50 is less than 100 nM.

Turning to `COc1nn(-c2ccccc2)c(NC(=O)N[C@@H]2c3ccccc3C(C)(C)[C@@H](OC)[C@H]2O)c1C` [Example 153, 1-((r-1,t-2,t-3)-2-hydroxy-3-methoxy-4,4-dimethyl 1,2,3,4-tetrahydronaphthalen-1-yl)-3-(3-methoxy-4-methyl-1-phenyl-1H-pyrazol-5-yl)urea], the IC50 is less than 100 nM.

Take `CO[C@H]1[C@@H](O)[C@H](NC(=O)Nc2c(C)c(-c3ccc(=O)n(C)c3)nn2-c2ccccc2)c2ccccc2C1(C)C` [Example 154, 1-((r-1,t-2,t-3)-2-hydroxy-3-methoxy-4,4-dimethyl-1,2,3,4-tetrahydronaphthalen-1-yl)-3-(4-methyl-3-(1-methyl-6-oxo-1,6-dihydropyridin-3-yl)-1-phenyl-1H-pyrazol-5-yl)urea]: the concentration for half-maximal inhibition (IC50) is less than 100 nM.

With `CO[C@H]1[C@@H](O)[C@H](NC(=O)Nc2c(C)c(-c3cnc(C)nc3)nn2-c2ccccc2)c2ccccc2C1(C)C` [Example 155, 1-((r-1,t-2,t-3)-2-hydroxy-3-methoxy-4,4-dimethyl-1,2,3,4-tetrahydronaphthalen-1-yl)-3-(4-methyl-3-(2-methylpyrimidin-5-yl)-1-phenyl-1H-pyrazol-5-yl)urea], the IC50 was less than 100 nM.

Regarding `CNC(=O)c1nn(-c2ccccc2)c(NC(=O)N[C@@H]2c3ccccc3C(C)(C)[C@H](OC)[C@H]2O)c1C` [Example 156, 5-(3-((r-1,t-2,c-3)-2-hydroxy-3-methoxy-4,4-dimethyl-1,2,3,4-tetrahydronaphthalen-1-yl)ureido)-N,4-dimethyl-1-phenyl-1H-pyrazole-3-carboxamide], the IC50 is less than 100 nM.

As to `CO[C@@H]1[C@@H](O)[C@H](NC(=O)Nc2c(C)c(-c3cnn(C)c3)nn2-c2ccccc2)c2ccccc2C1(C)C` [Example 157, 1-(1′,4-dimethyl-1-phenyl-1H,1′H-[3,4′-bipyrazol]-5-yl)-3-((r-1,t-2,c-3)-2-hydroxy-3-methoxy-4,4-dimethyl-1,2,3,4-tetrahydronaphthalen-1-yl)urea], the IC50 was less than 100 nM.

Regarding `CO[C@@H]1[C@@H](O)[C@H](NC(=O)Nc2c(C)c(OCC3CCN(C)CC3)nn2-c2ccccc2)c2ccccc2C1(C)C` [Example 158, 1-((r-1,t-2,c-3)-2-hydroxy-3-methoxy-4,4-dimethyl-1,2,3,4-tetrahydronaphthalen-1-yl)-3-(4-methyl-3-((1-methylpiperidin-4-yl)methoxy)-1-phenyl-1H-pyrazol-5-yl)urea], the half-inhibitory concentration (IC50) is less than 100 nM.

As usually defined, the IC50 is the point on the concentration scale where inhibition reaches its midpoint.

The values above are taken from patent US10351575B2, “Bicyclic urea, thiourea, guanidine and cyanoguanidine compounds useful for the treatment of pain” (Array BioPharma Inc., priority 2012, dated 2019).
